Measurements reported in PubChem BioAssay AID2305 (GlaxoSmithKline (GSK), 2010).

Tested on: P. falciparum 3D7 growth, pLDH absorbance
Assay: blood-stage malaria parasite growth potency – strain 3D7, dose response (AID 2305)

SMILES | IC50 [µM]
Oc1ccc(CCNCCCCNCCc2ccc(Cl)cc2)cc1O | 0.84
O=C(c1cc(-c2cccs2)[nH]n1)N1CCN(S(=O)(=O)c2ccc(Cl)cc2)CC1 | 0.29
COc1cc(F)c2nccc([C@@H](O)CN3CC[C@H](NCc4ccc5c(n4)NC(=O)CS5)[C@H](F)C3)c2c1 | 1.17
Clc1ccc(-c2cnc3ccc(NCCc4cccnc4)nn23)cc1 | 0.86
COc1cc(-c2cc(-c3ccc(S(C)(=O)=O)cc3)cnc2N)ccc1O | 0.1
COc1ccc(Nc2ncc3c(-c4ccc(NC(=O)c5cccc(C(F)(F)F)c5)cc4)c[nH]c3n2)cc1OC | 1.03
Cc1nc(NCCc2cnc[nH]2)cc(NCc2ccccc2)n1 | 0.83
CN1CCC(C(=O)N(Cc2ccc(-c3ccc(CNCCc4ccccc4)cn3)cc2)Cc2cccc(F)c2)CC1 | 0.94
CCOC(=O)c1ccc(N2CCN(CCCNC(=O)/C(=C/C=C/c3cc4cc(Cl)c(Cl)cc4[nH]3)OC)CC2)cc1 | 0.85
CS(=O)(=O)c1cccc(-c2cnc3[nH]cc(-c4ccc(CCC(=O)O)cc4)c3c2)c1 | 0.63
CCCc1ccc(NC(=O)c2cccc(CN3CCCN(Cc4cccc(C#N)c4)CC3)c2)cc1 | 0.98
CN(C)CCn1c(N)c(-c2nc3ccccc3s2)c2nc(C#N)c(C#N)nc21 | 1.01
O=C(NC1CCN(CCC(NC(=O)c2ccccc2)c2ccc(Cl)c(Cl)c2)CC1)c1ccc(Cl)cc1 (stereo not drawn) | 1.07
O=C(Nc1ccccc1Cc1ccccc1)c1ccccc1[N+](=O)[O-] | 0.86
O=C(c1cc(C(=O)NCc2ccc(Cl)cc2)c(=O)n(Cc2ccc(Cl)cc2)c1)c1cc(Cl)ccc1O | 1.4
Cc1cc(NC(=O)NCCN2CCC(NS(=O)(=O)c3ccc(C(F)(F)F)cc3)C2)c2ccccc2n1 (stereo not drawn) | 0.65
Cc1ccc2c(c1)C1(CC(=O)N(CCc3scnc3C)C1=O)C(=O)N2Cc1ccccc1 (stereo not drawn) | 1.25
N=C(N)c1ccc2nc(SCc3ccccc3)[nH]c2c1 | 0.69
Fc1cccc(COc2ccc(Nc3ncnc4sc(C#C[C@H]5CCCN5)cc34)cc2F)c1 | 0.87
O=C(c1ccc([N+](=O)[O-])o1)N1CCN(c2ccccc2)CC1 | 0.04
CCc1cn2c3c(cc(C(=O)N[C@@H](Cc4cc(F)cc(F)c4)[C@H](O)CNC4CCCCC4)cc13)N(C)S(=O)(=O)CC2 | 0.03
CCCN(CC1CC1)c1ncc(-c2cccc(CNCc3ccccc3O)c2)cn1 | 0.7
C[C@@H](CC1CCCCC1)OC(=O)N(C)[C@H]1CCN(C#N)C1 | 0.22
C=CCNS(=O)(=O)c1ccc(NC(=O)C(C)Oc2ccc([N+](=O)[O-])cc2)cc1 (stereo not drawn) | 1.22

SMILES | IC50 [µM]
COc1cccc(CNC[C@@H](O)[C@H](Cc2ccccc2)NC(=O)c2cc(C3CCCC3)cc(N3CCCCS3(=O)=O)c2)c1 | 0.6
COc1ccc2ncc(F)c(CCN3CCC(NCc4ccc5c(c4)CCO5)CC3)c2n1 | 0.68
Nc1nc(N)c2c(Cl)c(CNc3cccc(C(=O)O)c3)ccc2n1 | 0.01
CC[C@H]1CN2CC[C@H]1C[C@H]2[C@H](O)c1cc(-c2ccc(F)cc2)nc2ccc(OC)cc12 | 0.05
Cc1[nH]c(C)c(-c2ccc(Oc3cccc(Cl)c3)cc2)c(=O)c1Cl | 0.02
c1ccc(CCNCc2ccc(-c3ccc(CNc4ccc5ncccc5c4)cc3)cc2)cc1 | 0.92
CCCCNCc1ccc(-c2nc(CN(Cc3ccc(Cl)c(Cl)c3)C(=O)CN(C)C)cs2)cc1 | 0.8
CCNc1cc(C)nc(Nc2ccc(NC(=O)c3ccco3)cc2)n1 | 1.09
O=C(Nc1ccc(C(=O)Nc2cccc(C3=NCCN3)c2)cc1)Nc1ccc(C2=NCCN2)cc1 | 0.1
O=C(NCCc1cccc(Cl)c1Cl)c1cnc(N2CCN(c3ccncc3)CC2)c(Cl)c1 | 0.7
Cc1ccc(NC(=O)c2ccc3ncccc3c2)cc1OC1CCN(Cc2ccco2)C1 (stereo not drawn) | 1.25
Cc1cc(N[C@@H](Cc2ccccc2)C(=O)NCc2cccc(F)c2)nc(NCc2ccccc2C)n1 | 0.98
Cc1c(-c2cccc(C(C)(C)NC3CCN(Cc4ccccc4)CC3)c2)cnc(N)c1C | 0.58
Cc1cc(NN=Cc2cccc(Cl)c2)c2ccc(F)cc2n1 | 0.24
COc1ccc2nccc([C@@H](O)CN3CCC(NC(=O)/C=C/c4cc(F)cc(Br)c4)CC3)c2c1 | 0.17
O=C(NCCN1CCCCC1)c1ccc(CNC(=O)c2ccc(O)c(-c3cccc(C(F)(F)F)c3)c2)cc1 | 0.89
CC1(C)CCC(C)(C)c2c1ccc(C1CCN(CCCCNC(=O)c3ccc(-c4ccc(C#N)cc4)cc3)CC1)c2O | 0.23
CC(C)CCn1c(Sc2ccc(C#N)c([N+](=O)[O-])c2)nnc1-c1ccccc1Cl | 1.03
O=C(Nc1ccc(OC(F)(F)F)cc1)NC1CCN(c2ccnc3ccccc23)C1 (stereo not drawn) | 0.24
Nc1nc(N)c2c(Sc3ccc(F)cc3)cccc2n1 | 1.07
CCCCNC(=O)[C@H](CC1CCCCC1)NC(=O)c1ccc(O)c(-c2ccc(Cl)c(Cl)c2)c1 | 0.16
CC(C)c1ccc(S(=O)(=O)N(c2ccc3c(c2)OCO3)C2CCN(Cc3ccccc3)C2)cc1 (stereo not drawn) | 0.35
NC(=NCc1ccccc1)Nc1nc(-c2ccc(OCCCn3ccnc3)cc2)cs1 | 0.25
CN(CCCNCc1ccc2ccccc2c1)CCCNCc1ccc2ccccc2c1 | 0.39
